Patent publication US20080248503A1, “Methods of Screening Compounds to Predict Toxicity and Residual Proliferative and Differentiation Capacity of the Lympho-Hematopoietic System” (priority 2005, published 2008)
Where two headings read alike, the source gives them in different places.

What was measured:
[1] = system: human hematopoietic lineages; experiment: HALO 7-population hemotoxicology, human hematopoietic lineages; assay type: cell-based
Method: (§1) To calculate the quantities of reagents required: • 1.
(§2) (See (iv) Adhesive Plate Covering Film above). • 3. […] Repeat this procedure a total of 4 times. Mixing is very important. • 4.
(§3) Luminescence is measured in relative luminescence units or RLU.

[2] = system: lymphopoietic cell populations
From the text: (§4) Depending on the type and size of the HALO kit used, all of the culture components required, with the exception of the cells, are included. A typical HALO kit contains the 3 component mixes required to culture cells: • 1. Serum component mix (Mix 1): contains fetal bovine serum (FBS), bovine serum albumin (BSA), transferring and insulin. • 2. Methyl cellulose mix (Mix 2): contains methylcellulose and alph-thioglycerol. • 3. Growth factor mix (Mix 3): contains the type and number of growth factors depending on the cell population being stimulated. • 4. Target cells as prepared in step 1 above: different cell types are available from peripheral blood, bone marrow, or umbilical cord blood (humans) procured from human, non-human primate, dog, rat, or mouse. • Methyl cellulose provided: Methyl cellulose is a viscous, water soluble, semi-solid medium for immobilizing cells. The amount of methyl cellulose provided is for the number of 96-well plates determined by the kit. However, if dispensed carefully, there is sufficient methyl cellulose so that several smaller experiments can be performed using the plate(s) provided. • Dispensing individual component mixes and reagents: A repeater pipette may be used which uses a positive-displacement syringe is used to dispense the methyl cellulose mix. • Dispensing the master mix: Once all the component mixes have been added together, use a repeater pipette to dispense the master mix into individual wells. Using normal syringes with needles may result in inaccurate dispensing and greater variation between replicate wells. • Number of replicates performed: At least 4 replicates per culture point are preferred. Plate configuration: The configuration of the 96-well plate for an experiment is arbitrary. However, the number of replicates and the way in which the reagents required to measure luminescence are added, will determine the plate configuration. For example, if performing 4 or 8 replicates per culture point, we recommend configuring the plate in columns, that is, A1 to DI and EI to HI etc. for quadruplicate cultures and A1 to HI, A2 to 112 etc. for 8-replicate cultures are possible. If performing 6 or 12 replicates, we recommend configuring the plate, in rows, that is, A1-A6 and A7 to A12 for 6 replicates and A1-A12, BL to—813 for 12 replicates are possible. If performing column replicates, addition of the ATP releasing reagent and ATP luminescence-monitoring reagent can be performed using an 8-channel pipette from left to right across the plate. If performing row replicates, an 8- or 12-channel pipette can be used to dispense the reagents from the top to the bottom of the plate. To calculate the quantities of reagents required: • 1. Determine the-number of sample categories required for testing and the number of replicates for each sample. • 2. Multiply the number of sample categories by the number of replicates to obtain the number of wells to be used.
(§5) Before adding the target cells, ensure that a single cell suspension has been prepared. • 6. Mix the contents of the tube vigorously to obtain a homogenous master mix. • 7. To ensure that as little master mix as possible remains on the walls of the tube perform a quick spin in a centrifuge to 500 rpm and then let the centrifuge spin down. […] Dispense 100 μl of the reagent master mix into each of the replicate wells. This can be performed with a syringe and needle, but a repeater pipette is recommended for ease of use, reproducibility and to reduce variation. • 9. Transfer the culture plate to a 37 Celsius, fully humidified incubator with an atmosphere of 5% CO2. If possible, use an incubator gassed with 95% nitrogen in order to reduce the atmospheric oxygen concentration of 5% O2 since this helps increase the plating efficiency. • 10.
(§6) The addition of ATP releasing reagent and ATP luminescence-monitoring reagent is performed is the same manner as that for ATP. • 1.

mouse CFC-GEMM = system: mouse CFC-GEMM
From the text: as §4, §5, §6

human HPP-SP = system: human HPP-SP
From the text: as §4, §5, §6

mouse HPP-SP = system: mouse HPP-SP
From the text: as §4, §5, §6

human CFC-GEMM = system: human CFC-GEMM
From the text: as §4, §5, §6

[3] = system: mouse hematopoietic lineages; assay type: cell-based
Method: as §1, §2, §3

[4] = system: human PBMNCs cultured under BFU-E-stimulating conditions; experiment: HALO apoptosis measurement (ADP:ATP ratio) of PBMNCs under BFU-E-stimulating conditions; assay type: cell-based
Method: Fresh human PBMNCs were cultured under BFU-E-stimulating conditions, together with 3 concentrations of DOX, namely 1 ng/ml (low), 10 ng/ml (medium) and 100 ng/ml (high) as per a typical HALO test procedure. Replicate plates were used so that the effects of DOX could be examined at 2 time points, namely days 3 and 7. At each time point, using the APOGLOW™ detection kit (Cambrex BioScience), ATP releasing reagent and ATP luminescence-monitoring reagent were added and the luminescence read immediately. A second luminescence reading was taken when the nadir ATP value occurred. At this point an ADP converting reagent (ADP-CR) was then added, which converts ADP to ATP and the luminescence measured when the conversion reached a plateau. From these 3 measurements ADP-.ATP ratio was determined. FIG. 15A and 15B show the mean RLU values for each of the DOX concentrations measured at the 2 time points. […]
Cell proliferation and apoptosis can actually be performed in a single read by performing HALO as described above, but then instead of measuring only ATP, adenosine diphosphate (ADP) is also measured, as shown in FIGS. 15 and 16. […]
In the HALO methods that form the basis of the kits of the present invention, ATP is released from the cells using ATP releasing reagent and a 15 min incubation. Thereafter, the ATP luminescence-monitoring reagent is added and the plates read immediately. […]

[5] = system: human PBMNCs cultured under BFU-E-stimulating conditions; experiment: HALO cell proliferation (luminescence) of PBMNCs under BFU-E-stimulating conditions; assay type: cell-based; conditions: days 3 and 7
Method: Fresh human PBMNCs were cultured under BFU-E-stimulating conditions, together with 3 concentrations of DOX, namely 1 ng/ml (low), 10 ng/ml (medium) and 100 ng/ml (high) as per a typical HALO test procedure. Replicate plates were used so that the effects of DOX could be examined at 2 time points, namely days 3 and 7. At each time point, using the APOGLOW™ detection kit (Cambrex BioScience), ATP releasing reagent and ATP luminescence-monitoring reagent were added and the luminescence read immediately. A second luminescence reading was taken when the nadir ATP value occurred. At this point an ADP converting reagent (ADP-CR) was then added, which converts ADP to ATP and the luminescence measured when the conversion reached a plateau. From these 3 measurements ADP-.ATP ratio was determined. FIG. 15A and 15B show the mean RLU values for each of the DOX concentrations measured at the 2 time points. […] On day 3, the increase in ADP:ATP ratio is due to apoptosis of cells with low proliferative capacity.

CFC-GEMM stem cells = experiment: HALO 7-population hemotoxicology, CFC-GEMM; assay type: cell-based; conditions: species not stated
Method: as §1, §2, §3

[6] = system: progenitor cell populations; experiment: HALO 7-population hemotoxicology, progenitor cell populations (hematopoietic lineages); assay type: cell-based
Method: as §1, §2, §3

mouse T-CFC = experiment: HALO 7-population hemotoxicology, mouse T-CFC; assay type: cell-based
Method: as §1, §2, §3

mouse B-CFC = experiment: HALO 7-population hemotoxicology, mouse B-CFC; assay type: cell-based
Method: as §1, §2, §3

BFU-E = experiment: HALO 7-population hemotoxicology, BFU-E (erythropoietic lineage); assay type: cell-based
Method: as §1, §2, §3

HPP-SP stem cells = experiment: HALO 7-population hemotoxicology, HPP-SP; assay type: cell-based; conditions: species not stated
Method: as §1, §2, §3

[7] = system: primitive and mature stem cell populations; experiment: HALO 7-population hemotoxicology, primitive and mature stem cell populations; assay type: cell-based; conditions: FIG. 17A
Method: as §1, §2, §3

Q: For `[Cl][Cd][Cl]` [cadmium chloride], which “effect on human hematopoietic lineages” value [1] is on record?
A: decrease

Q: And the “effect on lymphopoietic cells / lymphopoietic lineages” value ([2]; T-CFC & B-CFC)?
A: decrease

Q: And the “effect on mouse CFC-GEMM” value (mouse CFC-GEMM; mouse)?
A: no effect

Q: And the “effect on human HPP-SP” value (human HPP-SP; human)?
A: decrease

Q: What about the “effect on mouse HPP-SP” value (mouse HPP-SP; mouse) of the same compound?
A: decrease

Q: What about the “effect on human CFC-GEMM” value (human CFC-GEMM; human) of the same compound?
A: decrease

Q: And the “effect on mouse hematopoietic lineages” value [3]?
A: decrease

Q: What does the source list for `COc1cccc2c1C(=O)c1c(O)c3c(c(O)c1C2=O)C[C@@](O)(C(=O)CO)C[C@@H]3O[C@H]1C[C@H](N)[C@H](O)[C@H](C)O1` [DOX, doxorubicin]?
A: effect on ADP:ATP ratio ([4]; day 3): increase; apoptosis of BFU-E and immediate progeny ([4]; day 7): induced into apoptosis; effect on mean RLU (luminescence) ([5]; 1 ng/ml (low)): little or no effect; effect on mean RLU (luminescence) ([5]; 10 ng/ml (medium)): decrease the luminescence; effect on mean RLU (luminescence) ([5]; 100 ng/ml (high)): decrease the luminescence

Q: What does the source list for `c1ccccc1` [benzene]?
A: effect on CFC-GEMM stem cells (CFC-GEMM stem cells): acts at the CFC-GEMM level; effect on progenitor cells / hematopoietic lineages [6]: hematopoietic suppression

Q: Which results are given for `Nc1ccc(N)cc1` [p-phenelenediamine]?
A: effect on mouse T-CFC (mouse T-CFC): decrease; effect on mouse B-CFC (mouse B-CFC): decrease; effect on mouse HPP-SP (mouse HPP-SP; mouse): decrease

Q: `CN(C)C=O` [N,N-dimethylformamide] was tested. Which “effect on mouse T-CFC” value (mouse T-CFC) did it give?
A: stimulation

Q: What about the “effect on human HPP-SP” value (human HPP-SP; human) of the same compound?
A: effected

Q: What about the “effect on mouse HPP-SP” value (mouse HPP-SP; mouse) of the same compound?
A: stimulated

Q: And the “effect on mouse hematopoietic lineages” value [3]?
A: effected

Q: With `O=C(N[C@H](CO)[C@H](O)c1ccc([N+](=O)[O-])cc1)C(Cl)Cl` [chloramphenicol] as the compound, how does the “effect on erythroid elements” value (BFU-E; erythropoietic lineage) read?
A: decrease

Q: And the “effect on BFU-E” value (BFU-E; species not stated)?
A: specifically inhibited

Q: What about the “effect on HPP-SP stem cells” value (HPP-SP stem cells) of the same compound?
A: Stimulation

Q: What about the “effect on CFC-GEMM stem cells” value (CFC-GEMM stem cells) of the same compound?
A: no effect

Q: What about the “effect on lymphopoietic cells / lymphopoietic lineages” value ([2]; T-CFC & B-CFC) of the same compound?
A: stimulation

Q: Which “effect on lymphopoietic cells / lymphopoietic lineages” value [2] does the source give for `[Na+].[Na+].[O]=[Cr](=[O])([O-])[O][Cr](=[O])(=[O])[O-]` [sodium dichromate] here?
A: inhibition

Q: What about the “effect on mouse CFC-GEMM” value (mouse CFC-GEMM) of the same compound?
A: inhibited

Q: What about the “effect on human HPP-SP” value (human HPP-SP) of the same compound?
A: inhibited

Q: And the “effect on mouse HPP-SP” value (mouse HPP-SP)?
A: inhibited

Q: And the “effect on human CFC-GEMM” value (human CFC-GEMM)?
A: inhibited

Q: And the “effect on progenitor cells / hematopoietic lineages” value [6]?
A: inhibition

Q: How did the “effect on lymphopoietic cells / lymphopoietic lineages” value ([2]; T-CFC & B-CFC) turn out when `CCn1cc(C(=O)O)c(=O)c2ccc(C)nc21` [naladixic acid] was run?
A: No demonstrable effect

Q: What about the “effect on progenitor cells / hematopoietic lineages” value [6] of the same compound?
A: No demonstrable effect

Q: What about the “effect on stem cells” value [7] of the same compound?
A: No demonstrable effect
